In patent US20260166021A1, “POLYMORPHIC FORMS OF A SOLUBLE EPOXIDE HYDROLASE INHIBITOR AND FORMULATIONS THEREOF” (EicOsis, LLC, priority 2022, published 2026):

Legend:
Type in all cases: physicochemical
[1] = Hygroscopic analyses: stability at 75% relative humidity and 40° C. (XRD); conditions: open vial, after 4 and 14 days
Method: To further evaluate physical stability, Form D was tested for stability in humid conditions. […] FIG. 84 summarizes XRD analyses used to monitor the polymorph over the 14-day experiment. In this figure, the top panel provides a representative XRD spectrum of Form D, the second from the top panel is an XRD spectrum of the starting material, the third from the top panel is an XRD spectrum of the starting material after 4 days of humidity exposure, and the bottom panel is an XRD spectrum of the starting material after 14 days of humidity exposure.

[2] = Excipient stability analyses (HPLC impurities)
Method: For the excipient stability analyses, approximately 10-20 mg Form D was incubated in PEG400, propylene glycol, D-a-Tocopherol polyethylene glycol 1000 succinate (Vitamin E TPGS), Gelucire® 44/14, hydrogenated castor oil, glyceryl caprylate/caprate(Capmul® MCM), ethoxylated solubilizers (Kolliphor® HS 15, Kolliphor® EL), nonionic surfactant (Labrasol), and diethylene glycol monoethyl ether (Transcutol® HP).

[3] = Particle size analysis (Malvern particle sizer, dry method; optical microscopy)
Method: Particle size was first analyzed with optical microscopy.
Particle size was also analyzed with a dry-method using a Malvern 300 particle sizer equipped with a standard energy venturi and utilizing 2.5 bar, 3.0 bar, and 3.5 bar air pressure. […] One possible explanation is that the insufficient energy was provided to break up particle agglomerations.
Based on these findings, particle size analysis was repeated at 2.5, 3.0, and 3.5 bar using a higher energy venturi to ensure the break-up of the potential agglomerates. The detailed particle sizing data using high-energy venturi are summarized in TABLE 26 and in FIGS. 114-119, with FIGS. 114-116 corresponding to 2.5, 3.0, and 3.5 bar analyses of unmilled Form D and FIGS. 117-119 corresponding to 2.5, 3.0, and 3.5 bar analyses of micronized Form D, respectively. While the data remained bimodal, indicating incomplete break-up of particle agglomerates, the D90 of micronized material measured below 6 μm, in closer agreement with the optical analyses.

[4] = 50° C., Castor Oil, hydrogenated
[5] = Room Temperature, Capmul MCM, EP
[6] = Room Temperature, Capmul MCM, NF
[7] = Room Temperature, Castor Oil, hydrogenated*
[8] = Room Temperature, Gelucire 44/14
[9] = Room Temperature, Kolliphor HS-15
[10] = Room Temperature, Propylene glycol
[11] = Room Temperature, Vitamin E TPGS
[12] = milled (micronized), 2.5 bar air pressure, high-energy venturi
[13] = milled (micronized), 2.5 bar air pressure, standard energy venturi
[14] = milled (micronized), 3.0 bar air pressure, high-energy venturi
[15] = milled (micronized), 3.0 bar air pressure, standard energy venturi
[16] = milled (micronized), 3.5 bar air pressure, high-energy venturi
[17] = milled (micronized), 3.5 bar air pressure, standard energy venturi
[18] = unmilled, 2.5 bar air pressure, high-energy venturi
[19] = unmilled, 2.5 bar air pressure, standard energy venturi
[20] = unmilled, 3.0 bar air pressure, high-energy venturi
[21] = unmilled, 3.0 bar air pressure, standard energy venturi
[22] = unmilled, 3.5 bar air pressure, high-energy venturi
[23] = unmilled, 3.5 bar air pressure, standard energy venturi

CC[C@H](C)C(=O)N1CCC(NC(=O)Nc2ccc(OC(F)(F)F)c(F)c2)CC1 [Form D, (S)-1-(3-fluoro-4-(trifluoromethoxy)phenyl)-3-(1-(2-methylbutanoyl)piperidin-4-yl)urea]
polymorph stability in humid conditions [1]: unchanged
Impurity, % (Day 1) ([2]; 50° C., Capmul MCM, EP): None
Impurity, % (Day 3) ([2]; 50° C., Capmul MCM, EP): None
Impurity, % (Day 1) ([2]; 50° C., Capmul MCM, NF): None
Impurity, % (Day 3) ([2]; 50° C., Capmul MCM, NF): None
Impurity, % (Day 1) [2, 4]: None
Impurity, % (Day 3) [2, 4]: None
Impurity, % (Day 1) ([2]; 50° C., Gelucire 44/14): None
Impurity, % (Day 3) ([2]; 50° C., Gelucire 44/14): None
Impurity, % (Day 1) ([2]; 50° C., Kolliphor EL): None
Impurity, % (Day 3) ([2]; 50° C., Kolliphor EL): None
Impurity, % (Day 1) ([2]; 50° C., Kolliphor HS-15): None
Impurity, % (Day 3) ([2]; 50° C., Kolliphor HS-15): None
Impurity, % (Day 1) ([2]; 50° C., Labrasol): None
Impurity, % (Day 3) ([2]; 50° C., Labrasol): None
Impurity, % (Day 1) ([2]; 50° C., PEG 400): None
Impurity, % (Day 1) ([2]; 50° C., Propylene glycol): None
Impurity, % (Day 3) ([2]; 50° C., Propylene glycol): None
Impurity, % (Day 1) ([2]; 50° C., Transcutol): None
Impurity, % (Day 3) ([2]; 50° C., Transcutol): None
Impurity, % (Day 1) ([2]; 50° C., Vitamin E TPGS): None
Impurity, % (Day 3) ([2]; 50° C., Vitamin E TPGS): None
impurities after incubation in excipients ([2]; PEG400, propylene glycol, Vitamin E TPGS, Gelucire 44/14, hydrogenated castor oil, Capmul MCM, Kolliphor HS 15, Kolliphor EL, Labrasol, Transcutol HP, 4 or 7 days, room temperature or 50° C., HPLC): No impurities were observed
Impurity, % (Day 1) [2, 5]: None
Impurity, % (Day 3) [2, 5]: None
Impurity, % (Day 1) [2, 6]: None
Impurity, % (Day 3) [2, 6]: None
Impurity, % (Day 1) [2, 7]: None
Impurity, % (Day 3) [2, 7]: None
Impurity, % (Day 1) [2, 8]: None
Impurity, % (Day 3) [2, 8]: None
Impurity, % (Day 1) ([2]; Room Temperature, Kolliphor EL): None
Impurity, % (Day 3) ([2]; Room Temperature, Kolliphor EL): None
Impurity, % (Day 1) [2, 9]: None
Impurity, % (Day 3) [2, 9]: None
Impurity, % (Day 1) ([2]; Room Temperature, Labrasol): None
Impurity, % (Day 3) ([2]; Room Temperature, Labrasol): None
Impurity, % (Day 1) ([2]; Room Temperature, PEG 400): None
Impurity, % (Day 1) [2, 10]: None
Impurity, % (Day 3) [2, 10]: None
Impurity, % (Day 1) ([2]; Room Temperature, Transcutol): None
Impurity, % (Day 3) ([2]; Room Temperature, Transcutol): None
Impurity, % (Day 1) [2, 11]: None
Impurity, % (Day 3) [2, 11]: None
D10 [3, 12]: 0.46 μm
D50 [3, 12]: 1.52 μm
D90 [3, 12]: 5.80 μm
PSD Modal [3, 12]: Bimodal
D10 [3, 13]: 0.56 μm
D50 [3, 13]: 1.85 μm
D90 [3, 13]: 45.9 μm
PSD Modal [3, 13]: Bimodal
D10 [3, 14]: 0.46 μm
D50 [3, 14]: 1.47 μm
D90 [3, 14]: 5.42 μm
PSD Modal [3, 14]: Bimodal
D10 [3, 15]: 0.55 μm
D50 [3, 15]: 1.80 μm
D90 [3, 15]: 47.4 μm
PSD Modal [3, 15]: Bimodal
D10 [3, 16]: 0.44 μm
D50 [3, 16]: 1.51 μm
D90 [3, 16]: 5.44 μm
PSD Modal [3, 16]: Bimodal
D10 [3, 17]: 0.54 μm
D50 [3, 17]: 1.69 μm
D90 [3, 17]: 29.4 μm
PSD Modal [3, 17]: Bimodal
D10 [3, 18]: 5.24 μm
D50 [3, 18]: 22.0 μm
D90 [3, 18]: 55.8 μm
PSD Modal [3, 18]: Bimodal
D10 [3, 19]: 8.66 μm
D50 [3, 19]: 34.5 μm
D90 [3, 19]: 79.3 μm
PSD Modal [3, 19]: Unimodal
D10 [3, 20]: 4.47 μm
D50 [3, 20]: 20.1 μm
D90 [3, 20]: 54.8 μm
PSD Modal [3, 20]: Bimodal
D10 [3, 21]: 8.26 μm
D50 [3, 21]: 35.0 μm
D90 [3, 21]: 91.2 μm
PSD Modal [3, 21]: Unimodal
D10 [3, 22]: 2.84 μm
D50 [3, 22]: 17.2 μm
D90 [3, 22]: 51.1 μm
PSD Modal [3, 22]: Bimodal
D10 [3, 23]: 7.37 μm
D50 [3, 23]: 33.1 μm
D90 [3, 23]: 78.6 μm
PSD Modal [3, 23]: Unimodal
